In US9180128B2, “Stable pharmaceutical compositions of 5,10-methylene tetrahydrofolate” (MERCK & CIE, priority 2003, dated 2015):
Where two headings read alike, the source gives them in different places.

Experiments:
[1] = Storage stability of untreated reference sample; format: physicochemical; details: storage at +25° C
[2] = physiological common salt solution, +25° C, cited from earlier work

% relative stability ([1]; 0 months) [%] | % relative stability ([1]; 0.5 months) [%] | % relative stability ([1]; 1.0 months) [%] | % relative stability ([1]; 1.75 months) [%] | % relative stability ([1]; 2.5 months) [%] | % relative stability ([1]; 4.5 months) [%] | % relative stability ([1]; 9.2 months) [%] | % relative stability ([1]; 19.0 months) [%] | Structure (SMILES) | % relative stability ([2]; with the exclusion of air, 0 hours) [%] | % relative stability ([2]; with the exclusion of air, 4.0 hours) [%] | % relative stability ([2]; with the exclusion of air, 24.0 hours) [%] | % relative stability ([2]; with the exclusion of air, 26.0 hours) [%] | % relative stability ([2]; with the exclusion of air, 48.0 hours) [%] | % relative stability ([2]; without the exclusion of air, 0 hours) [%] | % relative stability ([2]; without the exclusion of air, 4.0 hours) [%] | % relative stability ([2]; without the exclusion of air, 24.0 hours) [%] | % relative stability ([2]; without the exclusion of air, 26.0 hours) [%] | % relative stability ([2]; without the exclusion of air, 48.0 hours) [%]
100.0 | 92.3 | 83.4 | 77.2 | 71.9 | 61.5 | 49.1 | 43.0 | Nc1nc2c(c(=O)[nH]1)N1CN(c3ccc(C(=O)N[C@@H](CCC(=O)[O-])C(=O)O)cc3)C[C@H]1CN2.Nc1nc2c(c(=O)[nH]1)N1CN(c3ccc(C(=O)N[C@@H](CCC(=O)[O-])C(=O)O)cc3)C[C@H]1CN2.[Ca+2] [Co 751, calcium salt of 5,10-methylene-(6R)-tetrahydrofolic acid] |  |  |  |  |  |  |  |  |  | 
 |  |  |  |  |  |  |  | Nc1nc2c(c(=O)[nH]1)N1CN(c3ccc(C(=O)N[C@@H](CCC(=O)[O-])C(=O)O)cc3)C[C@H]1CN2.Nc1nc2c(c(=O)[nH]1)N1CN(c3ccc(C(=O)N[C@@H](CCC(=O)[O-])C(=O)O)cc3)C[C@H]1CN2.[Ca+2] [calcium salt of 5,10-methylene-(6R,S)-tetrahydrofolic acid] | 100.0 | 58.0 | 38.0 | 18.0 | 8.0 | 100.0 | 84 | 12.0 | 8.0 | 6.0
